This is an account of results in ChEMBL document CHEMBL1201862, “PubChem BioAssay data set” (2004).

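Values below derive from 48-hour exposures of cells grown in 96-well plates, with endpoints linearly interpolated between the two concentrations bracketing the appropriate inhibition level. GI50 marks 50% less growth.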 The source made the active and inactive calls. No stated cut-off is given here; in the data, active = GI50 up to about 1.1 µM and inactive = higher.

Test systems include RXF 393; TK-10; SK-MEL-28; A549; BT-549; SR; HL-60; SK-MEL-5; SNB-19; HT-29; ACHN; UACC-62; HOP-62; EKVX; PC-3; SN12C; OVCAR-8; MDA-MB-231; SF-268; T47D.
What all share (experiment): growth of human tumour cells (NCI), 48 h

In the case of `COc1cccc(C(=O)O[C@H]2[C@@H]3[C@]4(OC(C)=O)CO[C@@H]4C[C@H](O)[C@@]3(C)C(=O)[C@H](OC(C)=O)C3=C(C)[C@@H](OC(=O)[C@H](O)[C@@H](NC(=O)OC(C)(C)C)c4ccco4)C[C@]2(O)C3(C)C)c1`, the GI50 in the experiment with RXF 393 is 0.00726 µM (active); with TK-10, 0.00527 µM (active); in the experiment with SK-MEL-28, 3.82 µM (inactive); in the experiment on A549 it was < 0.00375 µM (active); with BT-549, 0.0556 µM (active); with SR it was < 0.00375 µM (active). Also, the GI50 in the experiment with HL-60 was < 0.00375 µM (active); with SK-MEL-5, < 0.00375 µM (active); in the experiment with SNB-19, 0.133 µM (active); with HT-29, < 0.00375 µM (active); with ACHN, 0.139 µM (active); in the experiment with UACC-62, 0.0442 µM (active). Besides, the GI50 is < 0.00375 µM (active) in the experiment with HOP-62; 0.173 µM (active) in the experiment with EKVX; < 0.00375 µM (active) in the experiment with PC-3; 0.064 µM (active) in the experiment with SN12C; < 0.00375 µM (active) in the experiment on OVCAR-8; < 0.00375 µM (active) in the experiment on MDA-MB-231. The GI50 in the experiment on SF-268 is < 0.00375 µM (active).

Take `NC(Cc1ccc(OCc2ccccc2)cn1)C(=O)O` (stereo unspecified): the GI50 with RXF 393, in the experiment on TK-10, in the experiment on SK-MEL-28, with A549, in the experiment on BT-549 and in the experiment on SR was > 100 µM (inactive) throughout. Besides, the GI50 in the experiment on HL-60, in the experiment on SK-MEL-5, with SNB-19, with HT-29, with ACHN and in the experiment on HOP-62 was > 100 µM (inactive) in each case. Further, the GI50 in the experiment on EKVX, in the experiment on PC-3, in the experiment with SN12C, with OVCAR-8, with MDA-MB-231 and in the experiment with SF-268 was > 100 µM (inactive) each time.

Turning to `CC12CCC(C/C1=N\NC(N)=O)C2(C)C` (stereo unspecified), the GI50 in the experiment on TK-10, in the experiment with SK-MEL-28, in the experiment on A549, with BT-549, in the experiment with SR and in the experiment with HL-60 was > 100 µM (inactive) each time. Also, the GI50 in the experiment with SK-MEL-5, in the experiment with SNB-19, with HT-29, in the experiment on ACHN, with UACC-62 and with HOP-62 was > 100 µM (inactive) each time. For the same compound, the GI50 in the experiment on EKVX, in the experiment on PC-3, in the experiment with SN12C, in the experiment on OVCAR-8, in the experiment with T47D and with SF-268 was > 100 µM (inactive) each time.

Consider `O=c1[nH]c(=O)c2c([nH]1)[nH]c1ccc(Br)cc12`, for which the GI50 is > 100 µM (inactive) in the experiment on RXF 393; > 100 µM (inactive) with TK-10; > 100 µM (inactive) with A549; > 100 µM (inactive) with BT-549; > 100 µM (inactive) in the experiment with SR; 70.6 µM (inactive) with HL-60. Moreover, the GI50 in the experiment on SK-MEL-5 was 95.1 µM (inactive); in the experiment with SNB-19, > 100 µM (inactive); in the experiment with HT-29 it was > 100 µM (inactive); with ACHN, 70 µM (inactive); with UACC-62, > 100 µM (inactive); in the experiment on HOP-62, > 100 µM (inactive). Moreover, the GI50 in the experiment with EKVX is > 100 µM (inactive); in the experiment with SN12C, > 100 µM (inactive); with OVCAR-8 it was > 100 µM (inactive); with MDA-MB-231, 93.5 µM (inactive); with T47D it was > 100 µM (inactive); with SF-268, 97.1 µM (inactive).

`Clc1ccc(Nc2nnc(CCCCCCCCc3nnc(Nc4ccc(Cl)cc4)o3)o2)cc1`: the GI50 in the experiment with TK-10 is 55.8 µM (inactive); with SK-MEL-28 it was 48.6 µM (inactive); in the experiment with A549 it was 28.1 µM (inactive); with BT-549, 31.9 µM (inactive); in the experiment on SK-MEL-5, 23.1 µM (inactive); in the experiment on SNB-19, 26.3 µM (inactive). Moreover, the GI50 with HT-29 was 32 µM (inactive); in the experiment on ACHN it was 38.8 µM (inactive); with UACC-62, 21.7 µM (inactive); in the experiment on HOP-62, 37.9 µM (inactive); in the experiment on EKVX it was 39 µM (inactive); with PC-3, 38.1 µM (inactive). The GI50 was 45.7 µM (inactive) in the experiment with SN12C and 44.2 µM (inactive) in the experiment on MDA-MB-231.

For `CN1C(=O)N(C)C(O)C(Cl)(Br)C1=O` (stereo unspecified), the GI50 in the experiment on RXF 393, in the experiment on TK-10, with SK-MEL-28, with A549, in the experiment on BT-549 and in the experiment with SR was > 100 µM (inactive) throughout. For the same compound, the GI50 with HL-60, in the experiment on SK-MEL-5, with SNB-19, in the experiment with HT-29, in the experiment on ACHN and in the experiment on UACC-62 was > 100 µM (inactive) in each case. In addition, the GI50 with EKVX, in the experiment on PC-3, in the experiment with SN12C, in the experiment on OVCAR-8, with MDA-MB-231 and with SF-268 was > 100 µM (inactive) each time.

Regarding `O=C(NS(=O)(=O)Nc1ccc(Cl)cc1)OCc1ccc(Cl)cc1Cl`, the GI50 in the experiment with TK-10 is 16 µM (inactive); in the experiment on SK-MEL-28, 29.6 µM (inactive); in the experiment with A549, 21.8 µM (inactive); in the experiment on BT-549, 28.4 µM (inactive); in the experiment with SR, 38.2 µM (inactive); in the experiment with HL-60, 25.3 µM (inactive). Also, the GI50 with SK-MEL-5 is 17.8 µM (inactive); in the experiment on SNB-19, 18.6 µM (inactive); with HT-29 it was 20.5 µM (inactive); with ACHN it was 38.5 µM (inactive); in the experiment on UACC-62, 14 µM (inactive); with HOP-62 it was 36.7 µM (inactive). For the same compound, the GI50 with PC-3 is 31.4 µM (inactive); in the experiment with SN12C, 25.3 µM (inactive); with OVCAR-8, 31.3 µM (inactive); in the experiment with MDA-MB-231 it was 23.3 µM (inactive); in the experiment on SF-268 it was 1.02 µM (active).

`CC(Br)C(=O)c1ccc2cc(Br)c3ccccc3c2c1` (stereo unspecified): the GI50 in the experiment with RXF 393 was 15.4 µM (inactive); with TK-10, 19 µM (inactive); in the experiment on SK-MEL-28 it was 18.6 µM (inactive); with A549, 20 µM (inactive); with BT-549, 15.1 µM (inactive); in the experiment with SR it was 3.15 µM (inactive). The GI50 was 12 µM (inactive) in the experiment on HL-60; 14 µM (inactive) with SK-MEL-5; 17.4 µM (inactive) in the experiment on SNB-19; 17.1 µM (inactive) in the experiment with HT-29; 17.6 µM (inactive) in the experiment on ACHN; 15.4 µM (inactive) in the experiment with UACC-62. The GI50 in the experiment with HOP-62 is 17.2 µM (inactive); in the experiment with EKVX, 14.4 µM (inactive); in the experiment on SN12C, 7.01 µM (inactive); with OVCAR-8, 14 µM (inactive); with MDA-MB-231, 16.3 µM (inactive); in the experiment on T47D, 11.9 µM (inactive). In addition, the GI50 in the experiment on SF-268 is 16.3 µM (inactive).

With `CCCCCCOc1ccc(C(=O)NOCc2ccccc2)cc1`, the GI50 with RXF 393 was > 100 µM (inactive); in the experiment with TK-10, > 100 µM (inactive); in the experiment on SK-MEL-28, > 100 µM (inactive); with A549, > 100 µM (inactive); with BT-549, > 100 µM (inactive); in the experiment with SR, 18.5 µM (inactive). For the same compound, the GI50 was 39.7 µM (inactive) in the experiment with HL-60; > 100 µM (inactive) with SK-MEL-5; > 100 µM (inactive) in the experiment on SNB-19; > 100 µM (inactive) with HT-29; > 100 µM (inactive) with ACHN; > 100 µM (inactive) with UACC-62. For the same compound, the GI50 in the experiment on HOP-62, in the experiment on EKVX, in the experiment with PC-3, with SN12C, with OVCAR-8 and with MDA-MB-231 was > 100 µM (inactive) in each case. Also, the GI50 in the experiment with SF-268 was > 100 µM (inactive).

In the case of `Nc1nc(O)c([I+]c2ccccc2)c(=O)[nH]1`, the GI50 is > 100 µM (inactive) in the experiment on RXF 393; > 100 µM (inactive) in the experiment on TK-10; > 100 µM (inactive) with SK-MEL-28; > 100 µM (inactive) with A549; 57.1 µM (inactive) with BT-549; > 100 µM (inactive) with SR. In addition, the GI50 with HL-60, in the experiment with SK-MEL-5, in the experiment with SNB-19, in the experiment with HT-29, in the experiment on ACHN and with HOP-62 was > 100 µM (inactive) each time. The GI50 in the experiment on EKVX, in the experiment on PC-3, with SN12C, with OVCAR-8, in the experiment on MDA-MB-231 and in the experiment with SF-268 was > 100 µM (inactive) throughout.

Regarding `CN(C)C1(c2cc3ccccc3s2)CCCCC1`, the GI50 in the experiment with RXF 393 is 25.5 µM (inactive); in the experiment on TK-10, 47.2 µM (inactive); in the experiment with A549, 51.2 µM (inactive); in the experiment on BT-549, 64.9 µM (inactive); in the experiment on SR it was 18 µM (inactive); with HL-60 it was < 0.01 µM (active). Besides, the GI50 with SK-MEL-5 was 17.4 µM (inactive); in the experiment with SNB-19, 49 µM (inactive); in the experiment on HT-29 it was 33 µM (inactive); in the experiment with ACHN, 51.2 µM (inactive); with UACC-62, 20.5 µM (inactive); in the experiment with HOP-62 it was 58.1 µM (inactive). The GI50 with EKVX was > 100 µM (inactive); in the experiment on PC-3, 28.8 µM (inactive); in the experiment on SN12C, 53.2 µM (inactive); in the experiment with OVCAR-8 it was 51.3 µM (inactive); with MDA-MB-231, 65.6 µM (inactive); in the experiment on SF-268 it was 18.8 µM (inactive).
